From paper PMC9578392, “Safety, Tolerability, and Pharmacokinetics of the Novel Antiviral Agent Ensitrelvir Fumaric Acid, a SARS-CoV-2 3CL Protease Inhibitor, in Healthy Adults” (Antimicrobial Agents and Chemotherapy, 2022)

Assay: Treatment-emergent adverse events, multiple dose (part 2)
Type: in vivo, human
Protocol: In part 1, Japanese participants were randomized to receive placebo or single dose of ensitrelvir (20, 70, 250, 500, 1,000, and 2,000 mg given to cohorts A, B, C, D, E, and J, respectively), suspended in 0.5% methylcellulose, in the fasted state. Additionally, in cohort C, the effect of food on the pharmacokinetics of ensitrelvir was investigated in a 2-group, 2-period crossover design by administering placebo or ensitrelvir (250 mg) in the fasted or fed (high-fat/high-calorie) state. In part 2, Japanese participants were randomized to receive placebo or multiple doses of ensitrelvir, suspended in 0.5% methylcellulose. The multiple-dose regimens were as follows: once-daily doses of ensitrelvir 375 mg on day 1 and 125 mg on days 2 to 5 (cohort F), or 750 mg on day 1 and 250 mg on days 2 to 6 (cohort G) in the fasted state. White participants were randomized to receive placebo or multiple doses of ensitrelvir. The multiple-dose regimens were as follows: once-daily doses of ensitrelvir 375 mg on day 1 and 125 mg on days 2 to 5 (cohort H). Each cohort included 11 participants. In cohort G, the effect of ensitrelvir on the pharmacokinetics of midazolam (syrup) was evaluated in an open label self-controlled crossover design. Midazolam 2 mg alone was administered 2 days prior to initiating ensitrelvir administration (on day −2) and midazolam was coadministered on day 6 with placebo or ensitrelvir in the fasted state to participants following once-daily doses for 5 days of placebo (days 1 to 5) or ensitrelvir (750 mg on day 1 and 250 mg on days 2–5).
The nature, frequency, and severity of TEAEs were evaluated and recorded.

[1] = Cohort G 750/250 mg + midazolam, Japanese, n = 8
[2] = Cohort G 750/250 mg + midazolam, Japanese, n = 8, listed as ensitrelvir
[3] = Cohort H 125 mg, white, n = 8, listed as ensitrelvir

## Cn1cnc(Cn2c(=O)[nH]/c(=N\c3cc4cn(C)nc4cc3Cl)n(Cc3cc(F)c(F)cc3F)c2=O)n1 [Ensitrelvir, ensitrelvir fumaric acid]
[1]
  Nausea, Events: 1
  Nausea, n (%): 1 (12.5)
  Nervous system disorders, Events: 11
  Nervous system disorders, n (%): 5 (62.5)
  Oropharyngeal pain, Events: 0
  Oropharyngeal pain, n (%): 0
  Participants with any TEAE, Events: 33
  Participants with any TEAE, n (%): 8 (100)
  Pyrexia, Events: 1
  Pyrexia, n (%): 1 (12.5)
  Rash, Events: 1
  Rash, n (%): 1 (12.5)
  Respiratory, thoracic, and mediastinal disorders, Events: 0
  Respiratory, thoracic, and mediastinal disorders, n (%): 0
  Skin and subcutaneous tissue disorders, Events: 1
  Skin and subcutaneous tissue disorders, n (%): 1 (12.5)
  Somnolence, Events: 4
  Somnolence, n (%): 3 (37.5)
  Vomiting, Events: 1
  Vomiting, n (%): 1 (12.5)
[2]
  Diarrhea, n (%): 4/8
  Headache, n (%): 4/8
  High-density lipoprotein cholesterol decreased, n (%): 7/8
  Somnolence, n (%): 3/8
Cohort H 125 mg, white, n = 8
  Abdominal pain, Events: 1
  Abdominal pain, n (%): 1 (12.5)
  Blood creatine phosphate increased, Events: 0
  Blood creatine phosphate increased, n (%): 0
  Blood triglyceride increased, Events: 0
  Blood triglyceride increased, n (%): 0
  C-reactive protein increased, Events: 0
  C-reactive protein increased, n (%): 0
  Diarrhea, Events: 6
  Dizziness, Events: 0
  Dizziness, n (%): 0
  Feeling hot, Events: 0
  Feeling hot, n (%): 0
  Gastrointestinal disorders, Events: 7
  Gastrointestinal disorders, n (%): 4 (50.0)
  General disorders and administration site conditions, Events: 0
  General disorders and administration site conditions, n (%): 0
  Headache, Events: 4
  Headache, n (%): 2 (25.0)
  High-density lipoprotein cholesterol decreased, Events: 7
  High-density lipoprotein cholesterol decreased, n (%): 7 (87.5)
  Investigations, Events: 7
  Investigations, n (%): 7 (87.5)
  Nausea, Events: 0
  Nausea, n (%): 0
  Nervous system disorders, Events: 4
  Nervous system disorders, n (%): 2 (25.0)
  Oropharyngeal pain, Events: 1
  Oropharyngeal pain, n (%): 1 (12.5)
  Participants with any TEAE, Events: 19
  Participants with any TEAE, n (%): 8 (100)
  Pyrexia, Events: 0
  Pyrexia, n (%): 0
  Rash, Events: 0
  Rash, n (%): 0
  Respiratory, thoracic, and mediastinal disorders, Events: 1
  Respiratory, thoracic, and mediastinal disorders, n (%): 1 (12.5)
  Skin and subcutaneous tissue disorders, Events: 0
  Skin and subcutaneous tissue disorders, n (%): 0
  Somnolence, Events: 0
  Somnolence, n (%): 0
  Vomiting, Events: 0
  Vomiting, n (%): 0
[3]
  Diarrhea, n (%): 4/8
  Headache, n (%): 2/8
  High-density lipoprotein cholesterol decreased, n (%): 7/8
single- and multiple-dose administration
  course of the decrease in HDL-C levels: transient and generally reverted to the baseline values
